PMC4657098, “A Review of the Updated Pharmacophore for the Alpha 5 GABA(A) Benzodiazepine Receptor Model” (International Journal of Medicinal Chemistry, 2015)

Tests used:
α2A = target: T1, α2A (Homo sapiens, UniProt P08913); experiment: PDSP receptor binding, α2A; conditions: PDSP primary screen at 10 µM
T1 construct: purchased NIMH PDSP (Psychoactive Drug Screening Program, Roth lab, Case Western Reserve)

5ht7 = target: T2, 5ht7 (Homo sapiens, UniProt P34969); experiment: PDSP receptor binding, 5ht7; conditions: PDSP primary screen at 10 µM
T2 construct: purchased NIMH PDSP (Psychoactive Drug Screening Program, Roth lab, Case Western Reserve)

H1 = target: T3, H1 (Homo sapiens, UniProt P35367); experiment: PDSP receptor binding, H1; conditions: PDSP primary screen at 10 µM
T3 construct: purchased NIMH PDSP (Psychoactive Drug Screening Program, Roth lab, Case Western Reserve)

CB2 = target: T4, CB2 (Homo sapiens, UniProt P34972); experiment: PDSP receptor binding, CB2; conditions: PDSP primary screen at 10 µM
T4 construct: purchased NIMH PDSP (Psychoactive Drug Screening Program, Roth lab, Case Western Reserve)

5ht3 = target: T5, 5ht3 (Homo sapiens, UniProt P46098); experiment: PDSP receptor binding, 5ht3; conditions: PDSP primary screen at 10 µM
T5 construct: purchased NIMH PDSP (Psychoactive Drug Screening Program, Roth lab, Case Western Reserve)

mice = conditions: cited from earlier work
NMDA = experiment: PDSP receptor binding, NMDA; conditions: PDSP primary screen at 10 µM
α6β3γ2 GABAA/BzR = α6β3γ2 GABAA/BzR (Homo sapiens, UniProt P18507+Q16445); experiment: Competition binding to HEK cell membranes, α6β3γ2; design: expressed in transfected cells; conditions: Figure 5; read-out: Ki α6
σ1 = target: T6, σ1 (Homo sapiens, UniProt Q99720); experiment: PDSP receptor binding, σ1; conditions: PDSP primary screen at 10 µM
T6 construct: purchased NIMH PDSP (Psychoactive Drug Screening Program, Roth lab, Case Western Reserve)

[1] = PDSP receptor binding, β1B; conditions: PDSP primary screen at 10 µM
NET = target: T7, NET (Homo sapiens, UniProt P23975); experiment: PDSP receptor binding, NET; conditions: PDSP primary screen at 10 µM
T7 construct: purchased NIMH PDSP (Psychoactive Drug Screening Program, Roth lab, Case Western Reserve)

α2B = target: T8, α2B (Homo sapiens, UniProt P18089); experiment: PDSP receptor binding, α2B; conditions: PDSP primary screen at 10 µM
T8 construct: purchased NIMH PDSP (Psychoactive Drug Screening Program, Roth lab, Case Western Reserve)

M2 = target: T9, M2 (Homo sapiens, UniProt P08172); experiment: PDSP receptor binding, M2; conditions: PDSP primary screen at 10 µM
T9 construct: purchased NIMH PDSP (Psychoactive Drug Screening Program, Roth lab, Case Western Reserve)

5ht2b = target: T10, 5ht2b (Homo sapiens, UniProt P41595); experiment: PDSP receptor binding, 5ht2b; conditions: PDSP primary screen at 10 µM
T10 construct: purchased NIMH PDSP (Psychoactive Drug Screening Program, Roth lab, Case Western Reserve)

Beta2 = target: T11, Beta2 (Homo sapiens, UniProt P07550); experiment: PDSP receptor binding, Beta2; conditions: PDSP primary screen at 10 µM
T11 construct: purchased NIMH PDSP (Psychoactive Drug Screening Program, Roth lab, Case Western Reserve)

α5β3γ2 GABAA/BzR = α5β3γ2 GABAA/BzR (Homo sapiens, UniProt P18507+P31644); experiment: Competition binding to HEK cell membranes, α5β3γ2; design: expressed in transfected cells; conditions: Figure 5; read-out: Ki α5
D1 = target: T12, D1 (Homo sapiens, UniProt P21728); experiment: PDSP receptor binding, D1; conditions: PDSP primary screen at 10 µM
T12 construct: purchased NIMH PDSP (Psychoactive Drug Screening Program, Roth lab, Case Western Reserve)

[2] = tested on: other receptors (PDSP panel); experiment: Full PDSP panel receptor binding; conditions: NIMH PDSP, Case Western Reserve
Imidaz oline = experiment: PDSP receptor binding, Imidazoline; conditions: PDSP primary screen at 10 µM
M1 = target: T13, M1 (Homo sapiens, UniProt P11229); experiment: PDSP receptor binding, M1; conditions: PDSP primary screen at 10 µM
T13 construct: purchased NIMH PDSP (Psychoactive Drug Screening Program, Roth lab, Case Western Reserve)

SERT = target: T14, SERT (Homo sapiens, UniProt P31645); experiment: PDSP receptor binding, SERT; conditions: PDSP primary screen at 10 µM
T14 construct: purchased NIMH PDSP (Psychoactive Drug Screening Program, Roth lab, Case Western Reserve)

MDR = experiment: PDSP receptor binding, MDR; conditions: PDSP primary screen at 10 µM
H3 = target: T15, H3 (Homo sapiens, UniProt Q9Y5N1); experiment: PDSP receptor binding, H3; conditions: PDSP primary screen at 10 µM
T15 construct: purchased NIMH PDSP (Psychoactive Drug Screening Program, Roth lab, Case Western Reserve)

α1β3γ2 GABAA/BzR = α1β3γ2 GABAA/BzR (Homo sapiens, UniProt P14867+P18507); experiment: Competition binding to HEK cell membranes, α1β3γ2; design: expressed in transfected cells; conditions: Figure 5; read-out: Ki α1
5ht1a = target: T16, 5ht1a (Homo sapiens, UniProt P08908); experiment: PDSP receptor binding, 5ht1a; conditions: PDSP primary screen at 10 µM
T16 construct: purchased NIMH PDSP (Psychoactive Drug Screening Program, Roth lab, Case Western Reserve)

DOR = target: T17, DOR (Homo sapiens, UniProt P41143); experiment: PDSP receptor binding, DOR; conditions: PDSP primary screen at 10 µM
T17 construct: purchased NIMH PDSP (Psychoactive Drug Screening Program, Roth lab, Case Western Reserve)

Question: For `CCc1ccc2c(c1)C(=O)N(C)Cc1c(C(=O)OCCCOC(=O)c3ncn4c3CN(C)C(=O)c3cc(CC)ccc3-4)ncn1-2` [XLi-356 (10), 1,3-Bis(8-ethyl-5,6-dihydro-5-methyl-6-oxo-4H-imidazo[1,5a][1,4]benzodiazepine-3-carboxy) propyl diester], which α2A binding (α2A) is on record?
Answer: ∗ (“∗” indicates “primary missed” (<50% inhibition at 10 µM))

Question: And the 5ht7 binding (5ht7)?
Answer: ∗ (“∗” indicates “primary missed” (<50% inhibition at 10 µM))

Question: What about the H1 binding (H1) of the same compound?
Answer: ∗ (“∗” indicates “primary missed” (<50% inhibition at 10 µM))

Question: What about the CB2 binding (CB2) of the same compound?
Answer: ∗ (“∗” indicates “primary missed” (<50% inhibition at 10 µM))

Question: What about the 5ht3 binding (5ht3) of the same compound?
Answer: ∗ (“∗” indicates “primary missed” (<50% inhibition at 10 µM))

Question: What about the “freezing (contextual memory) after scopolamine” value (mice; 10 mg/kg, scopolamine 1 mg/kg) of the same compound?
Answer: attenuated the impairment of memory

Question: And the “reversal of scopolamine induced memory deficits” value (mice; mice)?
Answer: potently reverse scopolamine induced memory deficits

Question: And the NMDA binding (NMDA)?
Answer: ∗ (“∗” indicates “primary missed” (<50% inhibition at 10 µM))

Question: What about the Ki (α6β3γ2 GABAA/BzR) of the same compound?
Answer: 5000 nM

Question: And the σ1 binding (σ1)?
Answer: ∗ (“∗” indicates “primary missed” (<50% inhibition at 10 µM))

Question: What about the β1B binding [1] of the same compound?
Answer: ∗ (“∗” indicates “primary missed” (<50% inhibition at 10 µM))

Question: What about the NET binding (NET) of the same compound?
Answer: ∗ (“∗” indicates “primary missed” (<50% inhibition at 10 µM))

Question: And the α2B binding (α2B)?
Answer: ∗ (“∗” indicates “primary missed” (<50% inhibition at 10 µM))

Question: What about the M2 binding (M2) of the same compound?
Answer: ∗ (“∗” indicates “primary missed” (<50% inhibition at 10 µM))

Question: And the 5ht2b binding (5ht2b)?
Answer: ∗ (“∗” indicates “primary missed” (<50% inhibition at 10 µM))

Question: What about the Beta2 binding (Beta2) of the same compound?
Answer: ∗ (“∗” indicates “primary missed” (<50% inhibition at 10 µM))

Question: What about the Ki (α5β3γ2 GABAA/BzR) of the same compound?
Answer: 101 nM

Question: What about the D1 binding (D1) of the same compound?
Answer: ∗ (“∗” indicates “primary missed” (<50% inhibition at 10 µM))

Question: What about the “full panel receptor binding” value [2] of the same compound?
Answer: do not bind to other receptors at levels of concern

Question: And the Imidaz oline binding (Imidaz oline)?
Answer: ∗ (“∗” indicates “primary missed” (<50% inhibition at 10 µM))

Question: What about the M1 binding (M1) of the same compound?
Answer: ∗ (“∗” indicates “primary missed” (<50% inhibition at 10 µM))

Question: And the SERT binding (SERT)?
Answer: ∗ (“∗” indicates “primary missed” (<50% inhibition at 10 µM))

Question: What about the MDR binding (MDR) of the same compound?
Answer: ∗ (“∗” indicates “primary missed” (<50% inhibition at 10 µM))

Question: What about the H3 binding (H3) of the same compound?
Answer: ∗ (“∗” indicates “primary missed” (<50% inhibition at 10 µM))

Question: And the Ki (α1β3γ2 GABAA/BzR)?
Answer: 1850 nM

Question: What about the 5ht1a binding (5ht1a) of the same compound?
Answer: ∗ (“∗” indicates “primary missed” (<50% inhibition at 10 µM))

Question: What about the DOR binding (DOR) of the same compound?
Answer: ∗ (“∗” indicates “primary missed” (<50% inhibition at 10 µM))
